Source: ChEMBL document CHEMBL1201862, “PubChem BioAssay data set” (2004)
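Cells were grown in 96-well plates and exposed to each compound for 48 hours at five concentrations; endpoints were interpolated linearly between bracketing concentrations, or set to the highest concentration if not reached. GI50 is the concentration that inhibits growth by half.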 Activity calls are given as the source filed them. Rule as the data show it: active = GI50 up to about 1.1 µM and inactive = higher.

How the values were obtained:
Test in all cases: NCI tumour cell line growth inhibition, 48 h
SF-539 = test system: SF-539
UACC-257 = test system: UACC-257
TK-10 = test system: TK-10
HCT-116 = test system: HCT-116
Malme-3M = test system: Malme-3M
NCI-H460 = test system: NCI-H460
OVCAR-5 = test system: OVCAR-5
MOLT-4 = test system: MOLT-4
M19-MEL = test system: M19-MEL
SK-OV-3 = test system: SK-OV-3
786-0 = test system: 786-0
XF498 = test system: XF498
RXF 393 = test system: RXF 393
SR = test system: SR
RXF 631 = test system: RXF 631
UO-31 = test system: UO-31
SN12C = test system: SN12C
HL-60 = test system: HL-60
SNB-78 = test system: SNB-78
NCI-H23 = test system: NCI-H23
SNB-19 = test system: SNB-19
SNB-75 = test system: SNB-75
COLO 205 = test system: COLO 205
HT-29 = test system: HT-29
HOP-18 = test system: HOP-18
SF-295 = test system: SF-295
SW-620 = test system: SW-620
NCI-H226 = test system: NCI-H226
HOP-62 = test system: HOP-62
SK-MEL-2 = test system: SK-MEL-2
HCC 2998 = test system: HCC 2998
EKVX = test system: EKVX
LXFL 529 = test system: LXFL 529
A549 = test system: A549
IGROV-1 = test system: IGROV-1
RPMI-8226 = test system: RPMI-8226
OVCAR-8 = test system: OVCAR-8
DMS-273 = test system: DMS-273
OVCAR-3 = test system: OVCAR-3
LOX IMVI = test system: LOX IMVI
UACC-62 = test system: UACC-62
CCRF-CEM = test system: CCRF-CEM
HCT-15 = test system: HCT-15
ACHN = test system: ACHN
HOP-92 = test system: HOP-92
SK-MEL-28 = test system: SK-MEL-28
U-251 = test system: U-251
KM-20L2 = test system: KM-20L2
SF-268 = test system: SF-268
NCI-H522 = test system: NCI-H522
OVCAR-4 = test system: OVCAR-4
CAKI-1 = test system: CAKI-1
K562 = test system: K562
SK-MEL-5 = test system: SK-MEL-5
KM12 = test system: KM12
M14 = test system: M14
A498 = test system: A498
DLD-1 = test system: DLD-1
DMS-114 = test system: DMS-114

**Q.** Which results are given for `Cc1cc2c(=O)cc(-c3ccncc3)oc2c(C(=O)O)c1C`?
**A.** GI50 (SF-539): > 100 µM (inactive); GI50 (UACC-257): > 100 µM (inactive); GI50 (TK-10): > 100 µM (inactive); GI50 (HCT-116): > 100 µM (inactive); GI50 (Malme-3M): > 100 µM (inactive); GI50 (NCI-H460): > 100 µM (inactive); GI50 (OVCAR-5): > 100 µM (inactive); GI50 (MOLT-4): > 100 µM (inactive); GI50 (M19-MEL): > 100 µM (inactive); GI50 (SK-OV-3): > 100 µM (inactive); GI50 (786-0): > 100 µM (inactive); GI50 (XF498): > 100 µM (inactive); GI50 (RXF 393): > 100 µM (inactive); GI50 (SR): > 100 µM (inactive); GI50 (RXF 631): > 100 µM (inactive); GI50 (UO-31): > 100 µM (inactive); GI50 (SN12C): > 100 µM (inactive); GI50 (HL-60): > 100 µM (inactive); GI50 (SNB-78): > 100 µM (inactive); GI50 (NCI-H23): > 100 µM (inactive); GI50 (SNB-19): > 100 µM (inactive); GI50 (SNB-75): > 100 µM (inactive); GI50 (COLO 205): > 100 µM (inactive); GI50 (HT-29): > 100 µM (inactive); GI50 (HOP-18): > 100 µM (inactive); GI50 (SF-295): > 100 µM (inactive); GI50 (SW-620): > 100 µM (inactive); GI50 (NCI-H226): > 100 µM (inactive); GI50 (HOP-62): > 100 µM (inactive); GI50 (SK-MEL-2): > 100 µM (inactive); GI50 (HCC 2998): > 100 µM (inactive); GI50 (EKVX): > 100 µM (inactive); GI50 (LXFL 529): > 100 µM (inactive); GI50 (A549): > 100 µM (inactive); GI50 (IGROV-1): > 100 µM (inactive); GI50 (RPMI-8226): > 100 µM (inactive); GI50 (OVCAR-8): > 100 µM (inactive); GI50 (DMS-273): > 100 µM (inactive); GI50 (OVCAR-3): > 100 µM (inactive); GI50 (LOX IMVI): > 100 µM (inactive); GI50 (UACC-62): > 100 µM (inactive); GI50 (CCRF-CEM): > 100 µM (inactive); GI50 (HCT-15): > 100 µM; GI50 (ACHN): > 100 µM (inactive); GI50 (HOP-92): > 100 µM (inactive); GI50 (SK-MEL-28): > 100 µM (inactive); GI50 (U-251): > 100 µM (inactive); GI50 (KM-20L2): > 100 µM (inactive); GI50 (SF-268): > 100 µM (inactive)

**Q.** What does the source list for `c1ccc2c(c1)N=C(c1cccc3ccccc13)CC(c1ccc3c(c1)OCO3)S2` (stereo not drawn)?
**A.** GI50 (SF-539): > 100 µM (inactive); GI50 (UACC-257): > 100 µM (inactive); GI50 (TK-10): > 100 µM (inactive); GI50 (NCI-H522): > 100 µM (inactive); GI50 (HCT-116): > 100 µM (inactive); GI50 (OVCAR-4): > 100 µM (inactive); GI50 (Malme-3M): 70.6 µM (inactive); GI50 (NCI-H460): > 100 µM (inactive); GI50 (OVCAR-5): > 100 µM (inactive); GI50 (MOLT-4): > 100 µM (inactive); GI50 (M19-MEL): > 100 µM (inactive); GI50 (SK-OV-3): > 100 µM (inactive); GI50 (CAKI-1): > 100 µM (inactive); GI50 (K562): > 100 µM (inactive); GI50 (786-0): > 100 µM (inactive); GI50 (XF498): > 100 µM (inactive); GI50 (RXF 393): > 100 µM (inactive); GI50 (SR): > 100 µM (inactive); GI50 (RXF 631): > 100 µM (inactive); GI50 (UO-31): > 100 µM (inactive); GI50 (SN12C): > 100 µM (inactive); GI50 (HL-60): > 100 µM (inactive); GI50 (SNB-78): > 100 µM (inactive); GI50 (NCI-H23): > 100 µM (inactive); GI50 (SNB-19): > 100 µM (inactive); GI50 (SNB-75): > 100 µM (inactive); GI50 (COLO 205): > 100 µM (inactive); GI50 (SK-MEL-5): > 100 µM (inactive); GI50 (HT-29): > 100 µM (inactive); GI50 (KM12): > 100 µM (inactive); GI50 (HOP-18): > 100 µM (inactive); GI50 (SF-295): 53.6 µM (inactive); GI50 (SW-620): > 100 µM (inactive); GI50 (M14): 25.4 µM (inactive); GI50 (NCI-H226): > 100 µM (inactive); GI50 (A498): 49 µM (inactive); GI50 (HOP-62): > 100 µM (inactive); GI50 (SK-MEL-2): > 100 µM (inactive); GI50 (HCC 2998): > 100 µM (inactive); GI50 (EKVX): > 100 µM (inactive); GI50 (LXFL 529): > 100 µM (inactive); GI50 (A549): > 100 µM (inactive); GI50 (IGROV-1): > 100 µM (inactive); GI50 (OVCAR-8): > 100 µM (inactive); GI50 (DLD-1): > 100 µM (inactive); GI50 (DMS-273): > 100 µM (inactive); GI50 (OVCAR-3): > 100 µM (inactive); GI50 (LOX IMVI): > 100 µM (inactive); GI50 (UACC-62): > 100 µM (inactive); GI50 (CCRF-CEM): > 100 µM (inactive); GI50 (ACHN): > 100 µM (inactive); GI50 (SK-MEL-28): > 10 µM (inactive); GI50 (U-251): 73.3 µM (inactive); GI50 (KM-20L2): > 100 µM (inactive); GI50 (SF-268): > 100 µM (inactive)

**Q.** What does the source list for `CCCCCCCCCCSS(=O)(=O)c1ccc(C)cc1`?
**A.** GI50 (SF-539): 1.87 µM (inactive); GI50 (UACC-257): 8.28 µM (inactive); GI50 (TK-10): 21 µM (inactive); GI50 (NCI-H522): 6.4 µM (inactive); GI50 (HCT-116): 12.5 µM (inactive); GI50 (OVCAR-4): 15.6 µM (inactive); GI50 (Malme-3M): 15.6 µM (inactive); GI50 (NCI-H460): 8.13 µM (inactive); GI50 (OVCAR-5): 15.9 µM (inactive); GI50 (MOLT-4): 2.03 µM (inactive); GI50 (M19-MEL): 11.2 µM (inactive); GI50 (SK-OV-3): 22.3 µM (inactive); GI50 (CAKI-1): 15.9 µM (inactive); GI50 (K562): 12.1 µM (inactive); GI50 (786-0): 6.1 µM (inactive); GI50 (XF498): 13.3 µM (inactive); GI50 (RXF 393): 15.8 µM (inactive); GI50 (SR): 3.6 µM (inactive); GI50 (RXF 631): 7.28 µM (inactive); GI50 (UO-31): 15 µM (inactive); GI50 (SN12C): 10.5 µM (inactive); GI50 (HL-60): 2.43 µM (inactive); GI50 (SNB-78): 10.9 µM (inactive); GI50 (NCI-H23): 17.3 µM (inactive); GI50 (SNB-19): 10.5 µM (inactive); GI50 (SNB-75): 2.3 µM (inactive); GI50 (COLO 205): 14.1 µM (inactive); GI50 (SK-MEL-5): 5.36 µM (inactive); GI50 (HT-29): 9.08 µM (inactive); GI50 (KM12): 9.64 µM (inactive); GI50 (HOP-18): 17.9 µM (inactive); GI50 (SF-295): 6.58 µM (inactive); GI50 (SW-620): 14.3 µM (inactive); GI50 (M14): 10.4 µM (inactive); GI50 (NCI-H226): 19 µM (inactive); GI50 (A498): 18.5 µM (inactive); GI50 (DMS-114): 8.69 µM (inactive); GI50 (HOP-62): 19.9 µM (inactive); GI50 (SK-MEL-2): 5.01 µM (inactive); GI50 (HCC 2998): 17.5 µM (inactive); GI50 (EKVX): 12.4 µM (inactive); GI50 (LXFL 529): 13.6 µM (inactive); GI50 (A549): 14.9 µM (inactive); GI50 (IGROV-1): 15.1 µM (inactive); GI50 (RPMI-8226): 3.41 µM (inactive); GI50 (OVCAR-8): 14.1 µM (inactive); GI50 (DLD-1): 12.5 µM (inactive); GI50 (DMS-273): 9.27 µM (inactive); GI50 (OVCAR-3): 18.6 µM (inactive); GI50 (LOX IMVI): 4.45 µM (inactive); GI50 (UACC-62): 6.82 µM (inactive); GI50 (CCRF-CEM): 2.24 µM (inactive); GI50 (HCT-15): 13 µM; GI50 (ACHN): 16.9 µM (inactive); GI50 (HOP-92): 12.9 µM (inactive); GI50 (SK-MEL-28): 3.39 µM (inactive); GI50 (U-251): 4 µM (inactive); GI50 (KM-20L2): 16.6 µM (inactive); GI50 (SF-268): 6.12 µM (inactive)
